PubChem BioAssay AID1259411 (Chemical Carcinogenesis Research Information System (CCRIS), 2018)
The source made the active and inactive calls. How the calls were made is not given here.

Test system: rodent carcinogenicity bioassays, tumor incidence
Assay: CCRIS carcinogenicity studies
Procedure, shortened: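 Archive of carcinogenicity, mutagenicity, tumor promotion and tumor inhibition results drawn from journals, NCI reports and other sources, expert-reviewed; covers 1985-2011 and is no longer updated.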

SMILES: CCOP(=O)=O.CCOP(=O)=O.CCOP(=O)=O.[Al+3]
- carcinogen call (Species: Mouse, Strain/Sex: CD-1/Female (60/Group), Route: Oral): inactive; negative
- carcinogen call (Species: Mouse, Strain/Sex: CD-1/Male (60/Group), Route: Oral): inactive; negative
- carcinogen call (Species: Rat, Strain/Sex: CD Sprague-Dawley/Male (80/Group), Route: Oral, Dose: 0, 88, 348, 1372 mg/kg/day in diet for 24 mo, study duration 24 mo, Dose: 0, 88, 348, 1372 mg/kg/day in diet for 24 mo, study duration 24 mo, Tumor Site: Type of Lesion: Adrenal medulla: pheochromocytoma (5/80, 7/79. 15/81, 16/81). Urinary bladder: Carcinoma and papilloma combined (1/78 in): active; positive. (department of pesticides regulation reviewer described as a possible
- carcinogen call (Species: Rat, Strain/Sex: CD Sprague-Dawley/Male (80/Group), Route: Oral, Dose: 0, 117, 450, 1786 mg/kg/day in diet for 24 mo, study duration 24 mo, Dose: 0, 117, 450, 1786 mg/kg/day in diet for 24 mo, study duration 24 mo): inactive; negative

SMILES: CC(C)(c1ccc(O)cc1)c1ccc(O)cc1
- carcinogen call (Species: MOUSE, Strain/Sex: B6C3F1/FEMALE, Route: ORAL, Dose: 0, 5000, 10000 PPM IN DIET FOR 103 WK (STUDY DURATION: 103 WK), Dose: 0, 5000, 10000 PPM IN DIET FOR 103 WK (STUDY DURATION: 103 WK)): inactive; negative
- carcinogen call (Species: MOUSE, Strain/Sex: B6C3F1/MALE, Route: ORAL, Dose: 0, 1000, 5000 PPM IN DIET FOR 103 WK (STUDY DURATION: 103 WK), Dose: 0, 1000, 5000 PPM IN DIET FOR 103 WK (STUDY DURATION: 103 WK), Tumor Site: Type of Lesion: HEMATOPOIETIC SYSTEM: LYMPHOMA OR LEUKEMIA): equivocal
- carcinogen call (Species: Mouse, Strain/Sex: CD-1/Female (24/group); Route: Subcutaneous; Dose: 0; 10; 100; 1000 ug/kg in corn oil, once a day from days 1-5 of life; study duration 18 mo); Dose: 0; 10; 100; 1000 ug/kg in corn oil, once a day from days 1-5 of life; study duration 18 mo), Tumor Site: Type of Lesion: Uterus, leiomyoma (0/18; 1/23; 2/20; 1/16 [multiple lesions]), Tumor Site: Type of Lesion: Uterus, leiomyoma (0/18; 1/23; 2/20; 1/16 [multiple lesions])): inactive; negative (nonneoplastic and preneoplastic lesions observed in ovary/oviduct and
- carcinogen call (Species: RAT, Strain/Sex: F344/FEMALE, Route: ORAL, Dose: 0, 1000, 2000 PPM IN DIET FOR 103 WK (STUDY DURATION: 103 WK), Dose: 0, 1000, 2000 PPM IN DIET FOR 103 WK (STUDY DURATION: 103 WK), Tumor Site: Type of Lesion: HEMATOPOIETIC SYSTEM: LEUKEMIA): equivocal
- carcinogen call (Species: RAT, Strain/Sex: F344/MALE, Route: ORAL, Dose: 0, 1000, 2000 PPM IN DIET FOR 103 WK (STUDY DURATION: 103 WK), Dose: 0, 1000, 2000 PPM IN DIET FOR 103 WK (STUDY DURATION: 103 WK), Tumor Site: Type of Lesion: HEMATOPOIETIC SYSTEM: LEUKEMIA): equivocal
- carcinogen call (Species: Rat, Strain/Sex: Wistar-Furth/Female (?/group with maximum of 8 pups per dam), Route: Osmotic pump to dams, Dose: 0, 2.5, 25, 250, 1000 ug/kg bw/day from embryonic day 9 to postnatal day 1, study duration 50 or 95 postnatal days, Dose: 0, 2.5, 25, 250, 1000 ug/kg bw/day from embryonic day 9 to postnatal day 1, study duration 50 or 95 postnatal days, Tumor Site: Type of Lesion: Mammary gland, ductal hyperplasia): active; positive (significant increase at all dose levels at pnd 50; significant at 2.5

SMILES: CCN(CC)C(=S)S
- carcinogen call (Species: MOUSE, Strain/Sex: B6C3F1/FEMALE, Route: ORAL, Dose: 0, 500, 4000 PPM IN DIET, Dose: 0, 500, 4000 PPM IN DIET): inactive; negative
- carcinogen call (Species: MOUSE, Strain/Sex: B6C3F1/MALE, Route: ORAL, Dose: 0, 500, 4000 PPM IN DIET, Dose: 0, 500, 4000 PPM IN DIET): inactive; negative
- carcinogen call (Species: RAT, Strain/Sex: F344/FEMALE, Route: ORAL, Dose: 0, 1250, 2000 PPM IN DIET, Dose: 0, 1250, 2000 PPM IN DIET): inactive; negative
- carcinogen call (Species: RAT, Strain/Sex: F344/MALE, Route: ORAL, Dose: 0, 1250, 2000 PPM IN DIET, Dose: 0, 1250, 2000 PPM IN DIET): inactive; negative

SMILES: CCC[CH2][Sn]([CH2]CCC)([CH2]CCC)[O][Sn]([CH2]CCC)([CH2]CCC)[CH2]CCC
- carcinogen call (Species: RAT, Strain/Sex: WISTAR/FEMALE, Route: ORAL, Dose: 0, 0.5, 5, 50 MG/KG DIET FOR 30 MO (STUDY DURATION: 30 MO), Dose: 0, 0.5, 5, 50 MG/KG DIET FOR 30 MO (STUDY DURATION: 30 MO), Tumor Site: Type of Lesion: ADRENAL GLAND: PHEOCHROMOCYTOMA, PITUITARY: TUMOR): active; positive
- carcinogen call (Species: RAT, Strain/Sex: WISTAR/MALE, Route: ORAL, Dose: 0, 0.5, 5, 50 MG/KG DIET FOR 30 MO (STUDY DURATION: 30 MO), Dose: 0, 0.5, 5, 50 MG/KG DIET FOR 30 MO (STUDY DURATION: 30 MO), Tumor Site: Type of Lesion: ADRENAL GLAND: PHEOCHROMOCYTOMA, PITUITARY: TUMOR, PARATHYROID: ADENOMA, Tumor Site: Type of Lesion: ADRENAL GLAND: PHEOCHROMOCYTOMA, PITUITARY: TUMOR, PARATHYROID: ADENOMA): active; positive

SMILES: c1ccc2c(c1)cc1ccc3cccc4c5ccccc5c2c1c34
- carcinogen call (Species: MOUSE, Route: DERMAL, Tumor Site: Type of Lesion: INTEGUMENTARY SYSTEM (SKIN)): active; positive
- carcinogen call (Species: MOUSE, Route: SUBCUTANEOUS, Tumor Site: Type of Lesion: INJECTION SITE): active; positive
- carcinogen call (Species: MOUSE, Strain/Sex: SWISS/FEMALE, Route: DERMAL, Dose: 0, 1, 4, 8 NMOL IN 100 µL ACETONE 2/WK FOR 40 WK (STUDY DURATION: 48 WK), Dose: 0, 1, 4, 8 NMOL IN 100 µL ACETONE 2/WK FOR 40 WK (STUDY DURATION: 48 WK), Tumor Site: Type of Lesion: SKIN: TUMORS): active; positive
- carcinogen call (Species: Mouse, Strain/Sex: B6129SF1/J v 129S1/SvImJ crosses, Route: Transplacental, Dose: 15 mg/kg bw in corn oil to dams on day 18 of gestation, study duration 10 months, Tumor Site: Type of Lesion: Lung and liver tumors): active; positive
- carcinogen call (Species: Mouse, Strain/Sex: B6129SF1x129S1/Svlmj/Male and female (215 in 4 groups), Route: In utero, nursing, or in utero and nursing, Dose: 15 mg/kg, gavage to pregnant B6129SF1 females, once on day 17 of pregnancy (Study duration 10 months from birth), Tumor Site: Type of Lesion: Lung): active; positive (surviving offspring exhibited 100% incidence with multiplicity of appr
- carcinogen call (Species: RAT, Strain/Sex: SPRAGUE-DAWLEY/FEMALE, Route: INJECTION, Dose: 0, 0.25, 1 UMOL PER MAMMARY GLAND (STUDY DURATION: 24 WK), Dose: 0, 0.25, 1 UMOL PER MAMMARY GLAND (STUDY DURATION: 24 WK), Tumor Site: Type of Lesion: MAMMARY GLAND: TUMOR): active; positive

SMILES: ClC1=CC(c2cc(Cl)ccc2Cl)=C(Cl)[C@H]2O[C@@H]12
- carcinogen call (Species: MOUSE, Strain/Sex: STRAIN-A/FEMALE, Route: INTRAPERITONEAL, Dose: 0, 0.1, 0.2 UMOL/UL OF DMSO 5, 10 AND 20 µL GIVEN ON DAYS 4, 8 AND 15 AFTER BIRTH, RESPECTIVELY (STUDY DURATION: 28 WK), Dose: 0, 0.1, 0.2 UMOL/UL OF DMSO 5, 10 AND 20 µL GIVEN ON DAYS 4, 8 AND 15 AFTER BIRTH, RESPECTIVELY (STUDY DURATION: 28 WK)): inactive; negative
- carcinogen call (Species: MOUSE, Strain/Sex: STRAIN-A/MALE, Route: INTRAPERITONEAL, Dose: 0, 0.1, 0.2 UMOL/UL OF DMSO 5, 10 AND 20 µL GIVEN ON DAYS 4, 8 AND 15 AFTER BIRTH, RESPECTIVELY (STUDY DURATION: 28 WK), Dose: 0, 0.1, 0.2 UMOL/UL OF DMSO 5, 10 AND 20 µL GIVEN ON DAYS 4, 8 AND 15 AFTER BIRTH, RESPECTIVELY (STUDY DURATION: 28 WK)): inactive; negative

SMILES: CN(C)[C@@H]1C(=O)C(C(N)=O)=C(O)[C@@]2(O)C(=O)C3=C(O)c4c(O)cccc4[C@@](C)(O)[C@H]3[C@H](O)[C@@H]12
- carcinogen call (Species: MOUSE, Strain/Sex: B6C3F1/FEMALE, Route: ORAL, Dose: 0, 6300, 12500 PPM IN DIET FOR 103 WK (STUDY DURATION: 103 WK), Dose: 0, 6300, 12500 PPM IN DIET FOR 103 WK (STUDY DURATION: 103 WK)): inactive; negative
- carcinogen call (Species: MOUSE, Strain/Sex: B6C3F1/MALE, Route: ORAL, Dose: 0, 6300, 12500 PPM IN DIET FOR 103 WK (STUDY DURATION: 103 WK), Dose: 0, 6300, 12500 PPM IN DIET FOR 103 WK (STUDY DURATION: 103 WK)): inactive; negative
- carcinogen call (Species: RAT, Strain/Sex: F344/FEMALE, Route: ORAL, Dose: 0, 25000, 50000 PPM IN DIET FOR 103 WK (STUDY DURATION: 103 WK), Dose: 0, 25000, 50000 PPM IN DIET FOR 103 WK (STUDY DURATION: 103 WK), Tumor Site: Type of Lesion: PITUITARY GLAND: ADENOMA): equivocal
- carcinogen call (Species: RAT, Strain/Sex: F344/MALE, Route: ORAL, Dose: 0, 25000, 50000 PPM IN DIET FOR 103 WK (STUDY DURATION: 103 WK), Dose: 0, 25000, 50000 PPM IN DIET FOR 103 WK (STUDY DURATION: 103 WK), Tumor Site: Type of Lesion: ADRENAL GLAND: PHEOCHROMOCYTOMA): equivocal
